In US20180042918A1, “RESPIRATORY INFECTION TREATING AGENT” (KYORIN PHARMACEUTICAL CO., LTD., priority 2015, published 2018):
Values after ≈ are worked out from the molar mass of the structure shown. Marks after values point to notes of the source that are not given here.

Columns and labels:
[1] = male rat, 0.5 hours after single oral administration; cited from earlier work
E. coli ATCC25922 [2] = assay: microbe, parasite or virus in culture; type: cell-based; settings: Escherichia coli
S. aureus ATCC29213 = assay: Frequency of development of resistant bacteria; type: cell-based, Staphylococcus aureus; settings: for FREQUENCY OF DEVELOPMENT OF RESISTANT BACTERIA (AVERAGE OF TWO MEASURED VALUES): about 70 hours
Procedure: (§1) S. aureus ATCC29213 is Staphylococcus aureus, S. pneumoniae ATCC49619 is Streptococcus pneumoniae, and E. coli ATCC25922 is Escherichia coli. […]
(§2) The frequency of development of resistant bacteria was calculated by dividing the number of colonies developed on an agar medium having each drug concentration by the number of initially inoculated bacteria.

E. coli ATCC25922 [3] = assay: Frequency of development of resistant bacteria; type: cell-based, Escherichia coli; settings: for FREQUENCY OF DEVELOPMENT OF RESISTANT BACTERIA (AVERAGE OF TWO MEASURED VALUES): about 70 hours
Procedure: as §1, §2

S. pneumoniae ATCC49619 = assay: Frequency of development of resistant bacteria; type: cell-based, Streptococcus pneumoniae; settings: for FREQUENCY OF DEVELOPMENT OF RESISTANT BACTERIA (AVERAGE OF TWO MEASURED VALUES): about 70 hours
Procedure: as §1, §2

N[C@@H]1CN(c2c(F)cc3c(=O)c(C(=O)O)cn([C@@H]4C[C@@H]4F)c3c2Cl)CC12CC2 [sitafloxacin]
tissue distribution ratio into the lung tissue [1]: 2.7

O=C(O)c1cn(C2CC2)c2cc(N3CCNCC3)c(F)cc2c1=O [CPFX, ciprofloxacin]
MIC (E. coli ATCC25922 [2]): 8 ng/mL (≈ 0.0241 µM) | development of resistant bacteria (in words) (S. aureus ATCC29213; S. aureus ATCC29213, 4 to 16 × MIC): developed | FREQUENCY OF DEVELOPMENT OF RESISTANT BACTERIA (AVERAGE OF TWO MEASURED VALUES) (S. aureus ATCC29213; S. aureus ATCC29213, 4 × MIC): 6.2 × 10^−9* | FREQUENCY OF DEVELOPMENT OF RESISTANT BACTERIA (AVERAGE OF TWO MEASURED VALUES) (S. aureus ATCC29213; S. aureus ATCC29213, 8 × MIC): 3.1 × 10^−9* | FREQUENCY OF DEVELOPMENT OF RESISTANT BACTERIA (AVERAGE OF TWO MEASURED VALUES) (S. aureus ATCC29213; S. aureus ATCC29213, 16 × MIC): <2.1 × 10^−9 | development of resistant bacteria (in words) (E. coli ATCC25922 [3]; E. coli ATCC25922, 4 to 16 × MIC): developed | FREQUENCY OF DEVELOPMENT OF RESISTANT BACTERIA (AVERAGE OF TWO MEASURED VALUES) (E. coli ATCC25922 [3]; E. coli ATCC25922, 4 × MIC): 1.2 × 10^−8* | FREQUENCY OF DEVELOPMENT OF RESISTANT BACTERIA (AVERAGE OF TWO MEASURED VALUES) (E. coli ATCC25922 [3]; E. coli ATCC25922, 8 × MIC): <1.9 × 10^−9 | FREQUENCY OF DEVELOPMENT OF RESISTANT BACTERIA (AVERAGE OF TWO MEASURED VALUES) (E. coli ATCC25922 [3]; E. coli ATCC25922, 16 × MIC): <1.9 × 10^−9 | development of resistant bacteria (in words) (S. pneumoniae ATCC49619; S. pneumoniae ATCC49619, 4 to 16 × MIC): developed | FREQUENCY OF DEVELOPMENT OF RESISTANT BACTERIA (AVERAGE OF TWO MEASURED VALUES) (S. pneumoniae ATCC49619; S. pneumoniae ATCC49619, 4 × MIC): 1.1 × 10^−8* | FREQUENCY OF DEVELOPMENT OF RESISTANT BACTERIA (AVERAGE OF TWO MEASURED VALUES) (S. pneumoniae ATCC49619; S. pneumoniae ATCC49619, 8 × MIC): <1.1 × 10^−8 | FREQUENCY OF DEVELOPMENT OF RESISTANT BACTERIA (AVERAGE OF TWO MEASURED VALUES) (S. pneumoniae ATCC49619; S. pneumoniae ATCC49619, 16 × MIC): <1.1 × 10^−8
